# Measured values taken from US20240041866A1, “PHARMACEUTICAL COMPOSITION” (FUJIFILM TOYAMA CHEMICAL CO., LTD., priority 2020, published 2024).
# Tests used:
# [1] = cited from earlier work
# [2] = Test Example 2: Appearance (degree of coloring) of aqueous solution left at 70° C.; type: physicochemical; settings: stabilizing component added to aqueous solution of Compound A
# Protocol: To examine the stabilizing effect of a stabilizing component, the degree of coloring was determined. […] Subsequently, the color tone of each filtrate was observed visually.
SMILES,Results in view of appearance [2],Water solubility [1]
"NC(=O)c1nc(F)c[nH]c1=O [Compound A, 6-fluoro-3-hydroxy-2-pyrazinecarboxamide]",,low water solubility
"O=C(O)CNC(CO)(CO)CO [tricine, N-[tris(hydroxymethyl)methyl]glycine]",particularly favorable,
NC(CO)(CO)CO [trometamol],particularly favorable,

# Now from value to compound, other results behind:
Results in view of appearance [2],SMILES,Water solubility [1]
particularly favorable,"O=C(O)CN(CCN(CC(=O)O)CC(=O)O)CC(=O)O [EDTA, ethylenediamine tetraacetic acid]",
particularly favorable,"O=C(O)CN(CCO)CCO [bicine, N,N-bis(2-hydroxyethyl)glycine]",
